*1 amine or outer side, *2 acyl side, *3 side chain or, on linkers, in order; H or OH if unused. Where a SMILES comes first, the peptide text is derived from it. Bridges are numbered along the chain shown (N, C = ends). [ ]: non-standard residue; d: D form. The star is where a group is joined. hPhe(3,5-F2-4-CF3) = N[C@@H](CCc1cc(F)c(C(F)(F)F)c(F)c1)C(=O)O; hPhe(3-Cl-4-CF3) = N[C@@H](CCc1ccc(C(F)(F)F)c(Cl)c1)C(=O)O; X32 = COCCN([C@@H](Cc1ccc(C(F)(F)F)cc1)C(=O)[*:2])[*:1]; NPrPhe(4-CF3) = CCCN[C@@H](Cc1ccc(C(F)(F)F)cc1)C(=O)O; NMeGly(cPent) = CN[C@H](C(=O)O)C1CCCC1; Hyp = O=C(O)[C@@H]1C[C@@H](O)CN1; NMeD = CN[C@@H](CC(=O)O)C(=O)O; NMeL = CN[C@@H](CC(C)C)C(=O)O; αMeS = C[C@](N)(CO)C(=O)O; Morpholide = C1CN(*)CCO1; NMeA = CN[C@@H](C)C(=O)O; Ac5c = NC1(C(=O)O)CCCC1; Aze = O=C(O)[C@@H]1CCN1; Sar = CNCC(=O)O; tBu = CC(C)(C)*
Legend:
[1] = target: GDP-bound HRAS wild-type protein (Homo sapiens, UniProt P01112); test: Binding to HRAS by surface plasmon resonance (SPR), Single Cycle Kinetics
[2] = target: GDP-bound NRAS wild-type protein (Homo sapiens, UniProt P01111); test: Binding to NRAS by surface plasmon resonance (SPR), Single Cycle Kinetics
[3] = SPR, GDP-bound wild-type proteins
[4] = KD ratio, GDP-bound HRAS wild-type vs GDP-bound KRAS wild-type, SPR
[5] = KD ratio, GDP-bound NRAS wild-type vs GDP-bound KRAS wild-type, SPR

Chain of GDP-bound HRAS wild-type protein (P01112 whole entry): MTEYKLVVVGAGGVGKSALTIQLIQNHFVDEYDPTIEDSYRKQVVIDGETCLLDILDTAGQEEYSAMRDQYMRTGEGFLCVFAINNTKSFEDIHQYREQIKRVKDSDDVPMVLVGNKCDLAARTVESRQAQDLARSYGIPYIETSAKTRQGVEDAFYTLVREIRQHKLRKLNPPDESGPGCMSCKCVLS
Chain of GDP-bound NRAS wild-type protein (P01111 whole entry): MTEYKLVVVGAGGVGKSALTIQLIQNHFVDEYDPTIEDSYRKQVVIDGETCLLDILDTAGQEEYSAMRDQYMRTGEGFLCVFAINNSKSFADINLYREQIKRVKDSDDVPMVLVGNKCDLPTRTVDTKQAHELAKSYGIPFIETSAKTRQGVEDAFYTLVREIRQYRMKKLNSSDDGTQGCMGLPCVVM

CCO[C@@H]1C[C@H]2C(=O)NC3(CC(C)(C)C3)C(=O)N(C)[C@@H](C3CCCC3)C(=O)N(C)[C@H](C(=O)N3CCCCC3)CC(=O)N(C)[C@H]3CCC/C=C/c4ccc(cc4)C[C@@H](C(=O)N(C)CC(=O)N[C@@H](CCc4ccc(Cl)c(Cl)c4)C(=O)N2C1)N1CC/C=C\C[C@@H](C1=O)N(C)C(=O)CN(C)C(=O)[C@H]([C@@H](C)CC)NC3=O [PP2578]
HRAS/KRAS (ratio of KD value with respect to GDP-bound HRAS wild-type protein to KD value with respect to KRAS) ([1]; class symbols): A (a compound having 10 or more and less than 20 is denoted as A) | NRAS/KRAS (ratio of KD value with respect to GDP-bound NRAS wild-type protein to KD value with respect to KRAS) ([2]; class symbols): AA (a compound having 20 or more is denoted as AA)

CCC[C@H]1C(=O)N[C@@H]([C@@H](C)CC)C(=O)N(C2CC2)CC(=O)N(C)[C@H]2C/C=C\CCN(C2=O)[C@@H](Cc2ccc(C)cc2)C(=O)N(C)CC(=O)N[C@@H](CCc2ccc(C(F)(F)F)c(OC)c2)C(=O)N2C[C@H](OCC)C[C@H]2C(=O)N(C)C2(CCC2)C(=O)N(C)[C@@H](C2CCCC2)C(=O)N(C)[C@H](C(=O)N2CCCC2)CC(=O)N1C [PP3098, (2S,8S,12R,14S,20S,23S,27S,30S,36S,38Z)-20-cyclopentyl-32-cyclopropyl-12-ethoxy-8-[2-[3-methoxy-4-(trifluoromethyl)phenyl]ethyl]-4,16,19,22,26,35-hexamethyl-30-[(1S)-1-methylpropyl]-27-propyl-2-(p-tolylmethyl)-23-(pyrrolidine-1-carbonyl)spiro[1,4,7,10,16,19,22,26,29,32,35-undecazatricyclo[34.5.1.0^10,14]dotetracont-38-ene-17,1′-cyclobutane]-3,6,9,15,18,21,25,28,31,34,42-undecone]
HRAS/KRAS (ratio of KD value with respect to GDP-bound HRAS wild-type protein to KD value with respect to KRAS) [1, 3]: A (a compound having 10 or more and less than 20 is denoted as A) | NRAS/KRAS (ratio of KD value with respect to GDP-bound NRAS wild-type protein to KD value with respect to KRAS) [2, 3]: A (a compound having 10 or more and less than 20 is denoted as A)

CCO[C@@H]1C[C@H]2C(=O)NC3(CCC3)C(=O)N(C)[C@@H](C3CCCC3)C(=O)N(C)[C@H](C(=O)N(C)C)CC(=O)N(C)[C@@H](CC)C(=O)N[C@@H]([C@@H](C)CC)C(=O)N3CCC[C@H]3C(=O)N(C)[C@H]3C/C=C\CCN(C3=O)[C@@H](Cc3ccc(C(F)(F)F)cc3)C(=O)N(C)CC(=O)N[C@@H](CCc3cc(F)c(C(F)(F)F)c(F)c3)C(=O)N2C1 [PP1056]
HRAS/KRAS (ratio of KD value with respect to HRAS to KD value with respect to KRAS) [1, 4]: A (a compound having 10 or more and less than 20 is denoted as A) | NRAS/KRAS (ratio of KD value with respect to NRAS to KD value with respect to KRAS) [2, 5]: A (a compound having 10 or more and less than 20 is denoted as A)

C#CC[C@H]1C(=O)N[C@@H]([C@@H](C)CC)C(=O)N(C)CC(=O)N(C)[C@H]2C/C=C\CCN(C2=O)[C@@H](Cc2ccc(C(F)(F)F)cc2)C(=O)N(C)CC(=O)N[C@@H](CCc2cc(F)c(C(F)(F)F)c(F)c2)C(=O)N2C[C@H](F)C[C@H]2C(=O)NC2(CC(C)(C)C2)C(=O)N(C)[C@@H](C2CCCC2)C(=O)N(C)[C@H](C(=O)N(C)CC)CC(=O)N1C [PP1691]
HRAS/KRAS (ratio of KD value for HRAS to KD value for KRAS) [1, 4]: A (a compound having 10 or more and less than 20 is denoted as A) | NRAS/KRAS (ratio of KD value for NRAS to KD value for KRAS) [2, 5]: A (a compound having 10 or more and less than 20 is denoted as A)

CC[C@H](C)[C@@H]1NC(=O)[C@H](CC(C)C)N(C)C(=O)C[C@@H](C(=O)N2CCOCC2)N(C)C(=O)[C@H](C2CCCC2)N(C)C(=O)C2(CCCC2)NC(=O)[C@@H]2CCCN2C(=O)[C@H](CCc2ccc(C(F)(F)F)c(Cl)c2)NC(=O)CN(C)C(=O)[C@H](Cc2ccc(C(F)(F)F)cc2)N(CCOC)C(=O)[C@@H]2CCN2C(=O)[C@H](C)N(C)C1=O [PP0118] ([NMeL]I[NMeA][Aze][X32][Sar][hPhe(3-Cl-4-CF3)]P[Ac5c][NMeGly(cPent)][NMeD]-Morpholide; lactam N-11)
HRAS/KRAS (ratio of KD for GDP-bound HRAS wild-type to KD for KRAS) ([1]; SPR): C (A compound having a KD ratio of 0.1 or more and less than 3 is denoted as C) | NRAS/KRAS (ratio of KD for GDP-bound NRAS wild-type to KD for KRAS) ([2]; SPR): C (A compound having a KD ratio of 0.1 or more and less than 3 is denoted as C)

CCCN1C(=O)[C@@H]2CCN2C(=O)[C@H](C)N(C)C(=O)[C@H]([C@@H](C)CC)NC(=O)[C@H](CC(C)C)N(C)C(=O)C[C@@H](C(=O)N2CCOCC2)NC(=O)[C@H](C2CCCC2)N(C)C(=O)C2(CCCC2)NC(=O)[C@@H]2C[C@@H](OCC)CN2C(=O)[C@H](CCc2ccc(C(F)(F)F)c(Cl)c2)NC(=O)CN(C)C(=O)[C@@H]1Cc1ccc(C(F)(F)F)cc1 [PP0347] ([NMeL]I[NMeA][Aze][NPrPhe(4-CF3)][Sar][hPhe(3-Cl-4-CF3)][Hyp](Et)[Ac5c][NMeGly(cPent)]D-Morpholide; lactam N-11)
HRAS/KRAS (ratio of KD for GDP-bound HRAS wild-type to KD for KRAS) ([1]; SPR): B (a compound having 3 or more and less than 10 is denoted as B) | NRAS/KRAS (ratio of KD for GDP-bound NRAS wild-type to KD for KRAS) ([2]; SPR): C (A compound having a KD ratio of 0.1 or more and less than 3 is denoted as C)

CCCN1C(=O)CN(C)C(=O)CN(C)C(=O)[C@H]([C@@H](C)CC)NC(=O)[C@H](CC(C)C)N(C)C(=O)C[C@@H](C(=O)N2CCOCC2)N(C)C(=O)[C@H](C2CCCC2)N(C)C(=O)[C@](C)(COC(C)(C)C)NC(=O)[C@@H]2CCCN2C(=O)[C@H](CCc2cc(F)c(C(F)(F)F)c(F)c2)NC(=O)CN(C)C(=O)[C@@H]1Cc1ccc(C(F)(F)F)cc1 [PP0764] ([NMeL]I[Sar][Sar][NPrPhe(4-CF3)][Sar][hPhe(3,5-F2-4-CF3)]P[αMeS](tBu)[NMeGly(cPent)][NMeD]-Morpholide; lactam N-11)
HRAS/KRAS (ratio of KD value with respect to GDP-bound HRAS wild-type protein to KD value with respect to KRAS) ([1]; SPR): B (a compound having 3 or more and less than 10 is denoted as B) | NRAS/KRAS (ratio of KD value with respect to GDP-bound NRAS wild-type protein to KD value with respect to KRAS) ([2]; SPR): B (a compound having 3 or more and less than 10 is denoted as B)

— US20250230193A1, “CYCLIC COMPOUND HAVING SELECTIVE KRAS INHIBITORY EFFECT ON HRAS AND NRAS” (CHUGAI SEIYAKU KABUSHIKI KAISHA, priority 2022, published 2025)
